Measured values: PubChem BioAssay AID2060904 (Molecular Pharmacology Branch, DTP, NCI, 2025)

Test system: 349418-098-R-PDC complex spheroid viability
Experiment: Anticancer human tumor 349418-098-R-PDC patient-derived lung adenocarcinoma cell line growth inhibition [RAS]
Details: for IC50: curve of first compound; for viability, T/C: stronger effect = lower value
Method in brief: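 Agents were tested in combination matrices in half-log decrements from a top concentration at or near clinical Cmax (10 microM if undetermined). Targets were multi-cell spheroids of tumour lines plus HUVEC and MSC stromal cells.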

[1] = second compound 0.0316 µM, first compound 0.0316 µM
[2] = second compound 0.0316 µM, first compound 0.1 µM
[3] = second compound 0.0316 µM, first compound 0.316 µM
[4] = second compound 0.0316 µM, first compound 1 µM
[5] = second compound 0.0316 µM, first compound 3.16 µM
[6] = second compound 0.0316 µM, first compound 10 µM
[7] = second compound 0.1 µM, first compound 0.0316 µM
[8] = second compound 0.1 µM, first compound 0.1 µM
[9] = second compound 0.1 µM, first compound 0.316 µM
[10] = second compound 0.1 µM, first compound 1 µM
[11] = second compound 0.1 µM, first compound 3.16 µM
[12] = second compound 0.1 µM, first compound 10 µM
[13] = second compound 0.316 µM, first compound 0.0316 µM
[14] = second compound 0.316 µM, first compound 0.1 µM
[15] = second compound 0.316 µM, first compound 0.316 µM
[16] = second compound 0.316 µM, first compound 1 µM
[17] = second compound 0.316 µM, first compound 3.16 µM
[18] = second compound 0.316 µM, first compound 10 µM
[19] = second compound 1 µM, first compound 0.0316 µM
[20] = second compound 1 µM, first compound 0.1 µM
[21] = second compound 1 µM, first compound 0.316 µM
[22] = second compound 1 µM, first compound 1 µM
[23] = second compound 1 µM, first compound 3.16 µM
[24] = second compound 1 µM, first compound 10 µM
[25] = second compound 3.16 µM, first compound 0.0316 µM
[26] = second compound 3.16 µM, first compound 0.1 µM
[27] = second compound 3.16 µM, first compound 0.316 µM
[28] = second compound 3.16 µM, first compound 1 µM
[29] = second compound 3.16 µM, first compound 3.16 µM
[30] = second compound 3.16 µM, first compound 10 µM
[31] = second compound 10 µM, first compound 0.0316 µM
[32] = second compound 10 µM, first compound 0.1 µM
[33] = second compound 10 µM, first compound 0.316 µM
[34] = second compound 10 µM, first compound 1 µM
[35] = second compound 10 µM, first compound 3.16 µM
[36] = second compound 10 µM, first compound 10 µM
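Further: spheroids exposed to compound for seven days before viability readout.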

## Cc1nc(N2CCC3(CC2)COC(C)C3N)c(CO)nc1Sc1ccnc(N)c1Cl (stereo unspecified) + C#Cc1c(F)ccc2cc(O)cc(-c3ncc4c(N5CC6CCC(C5)N6)nc(OCC56CCCN5CC(F)C6)nc4c3F)c12
Second compound 0.0316 µM
  IC50: > 10 µM
Second compound 0.1 µM
  IC50: > 10 µM
Second compound 0.316 µM
  IC50: > 10 µM
Second compound 1 µM
  IC50: > 10 µM
Second compound 3.16 µM
  IC50: > 10 µM
Second compound 10 µM
  IC50: > 10 µM
[1]
  viability, T/C: 102%
[2]
  viability, T/C: 108%
[3]
  viability, T/C: 105%
[4]
  viability, T/C: 63.1%
[5]
  viability, T/C: 86%
[6]
  viability, T/C: 71.2%
[7]
  viability, T/C: 112%
[8]
  viability, T/C: 90.8%
[9]
  viability, T/C: 98.2%
[10]
  viability, T/C: 88.8%
[11]
  viability, T/C: 108%
[12]
  viability, T/C: 86%
[13]
  viability, T/C: 94.3%
[14]
  viability, T/C: 88%
[15]
  viability, T/C: 101%
[16]
  viability, T/C: 104%
[17]
  viability, T/C: 104%
[18]
  viability, T/C: 67.3%
[19]
  viability, T/C: 89.4%
[20]
  viability, T/C: 94.6%
[21]
  viability, T/C: 87%
[22]
  viability, T/C: 83.2%
[23]
  viability, T/C: 111%
[24]
  viability, T/C: 71.9%
[25]
  viability, T/C: 59.6%
[26]
  viability, T/C: 108%
[27]
  viability, T/C: 101%
[28]
  viability, T/C: 62.2%
[29]
  viability, T/C: 114%
[30]
  viability, T/C: 80.3%
[31]
  viability, T/C: 75.4%
[32]
  viability, T/C: 43.9%
[33]
  viability, T/C: 70.3%
[34]
  viability, T/C: 74.1%
[35]
  viability, T/C: 73%
[36]
  viability, T/C: 77%

## NC1c2ccccc2OC12CCN(c1cnc3c(N4CCCc5ncccc54)n[nH]c3n1)CC2 (stereo unspecified) + C#Cc1c(F)ccc2cc(O)cc(-c3ncc4c(N5CC6CCC(C5)N6)nc(OCC56CCCN5CC(F)C6)nc4c3F)c12
Second compound 0.0316 µM
  IC50: > 10 µM
Second compound 0.1 µM
  IC50: 9.34 µM
Second compound 0.316 µM
  IC50: > 10 µM
Second compound 1 µM
  IC50: > 10 µM
Second compound 3.16 µM
  IC50: > 10 µM
Second compound 10 µM
  IC50: > 10 µM
[1]
  viability, T/C: 113%
[2]
  viability, T/C: 108%
[3]
  viability, T/C: 96.7%
[4]
  viability, T/C: 79.7%
[5]
  viability, T/C: 90.1%
[6]
  viability, T/C: 63%
[7]
  viability, T/C: 86.7%
[8]
  viability, T/C: 86.2%
[9]
  viability, T/C: 94.7%
[10]
  viability, T/C: 79.1%
[11]
  viability, T/C: 94.3%
[12]
  viability, T/C: 47.6%
[13]
  viability, T/C: 94.2%
[14]
  viability, T/C: 120%
[15]
  viability, T/C: 105%
[16]
  viability, T/C: 76.2%
[17]
  viability, T/C: 83.5%
[18]
  viability, T/C: 58.4%
[19]
  viability, T/C: 95.9%
[20]
  viability, T/C: 92.4%
[21]
  viability, T/C: 87.5%
[22]
  viability, T/C: 99.6%
[23]
  viability, T/C: 104%
[24]
  viability, T/C: 54.2%
[25]
  viability, T/C: 71%
[26]
  viability, T/C: 90.4%
[27]
  viability, T/C: 90.1%
[28]
  viability, T/C: 84.3%
[29]
  viability, T/C: 84.9%
[30]
  viability, T/C: 77%
[31]
  viability, T/C: 85.3%
[32]
  viability, T/C: 22.6%
[33]
  viability, T/C: 67.2%
[34]
  viability, T/C: 82.7%
[35]
  viability, T/C: 65.3%
[36]
  viability, T/C: 67.2%

## Nc1ccn(C2OC(CO)C(O)C2(F)F)c(=O)n1 (stereo unspecified) + C#Cc1c(F)ccc2cc(O)cc(-c3ncc4c(N5CC6CCC(C5)N6)nc(OCC56CCCN5CC(F)C6)nc4c3F)c12
Second compound 0.0316 µM
  IC50: < 0.00316 µM
Second compound 0.1 µM
  IC50: < 0.00316 µM
Second compound 0.316 µM
  IC50: < 0.00316 µM
Second compound 1 µM
  IC50: < 0.00316 µM
Second compound 3.16 µM
  IC50: < 0.00316 µM
Second compound 10 µM
  IC50: < 0.00316 µM
Second compound 0.0316 µM, first compound 0.00316 µM
  viability, T/C: 22.7%
Second compound 0.0316 µM, first compound 0.01 µM
  viability, T/C: 7.34%
[1]
  viability, T/C: 6.68%
[2]
  viability, T/C: 6.34%
[3]
  viability, T/C: 4.77%
[4]
  viability, T/C: 5.69%
Second compound 0.1 µM, first compound 0.00316 µM
  viability, T/C: 22.5%
Second compound 0.1 µM, first compound 0.01 µM
  viability, T/C: 6.75%
[7]
  viability, T/C: 6.72%
[8]
  viability, T/C: 5.71%
[9]
  viability, T/C: 5.49%
[10]
  viability, T/C: 4.87%
Second compound 0.316 µM, first compound 0.00316 µM
  viability, T/C: 22.3%
Second compound 0.316 µM, first compound 0.01 µM
  viability, T/C: 7.7%
[13]
  viability, T/C: 6.8%
[14]
  viability, T/C: 6.21%
[15]
  viability, T/C: 6.34%
[16]
  viability, T/C: 5.58%
Second compound 1 µM, first compound 0.00316 µM
  viability, T/C: 21.2%
Second compound 1 µM, first compound 0.01 µM
  viability, T/C: 7.84%
[19]
  viability, T/C: 5.78%
[20]
  viability, T/C: 6.95%
[21]
  viability, T/C: 6.05%
[22]
  viability, T/C: 5.2%
Second compound 3.16 µM, first compound 0.00316 µM
  viability, T/C: 18.1%
Second compound 3.16 µM, first compound 0.01 µM
  viability, T/C: 9.18%
[25]
  viability, T/C: 6.71%
[26]
  viability, T/C: 7.51%
[27]
  viability, T/C: 7.89%
[28]
  viability, T/C: 6.18%
Second compound 10 µM, first compound 0.00316 µM
  viability, T/C: 16%
Second compound 10 µM, first compound 0.01 µM
  viability, T/C: 3.49%
[31]
  viability, T/C: 5.23%
[32]
  viability, T/C: 3.11%
[33]
  viability, T/C: 5.48%
[34]
  viability, T/C: 4.28%
